Test results published in ChEMBL document CHEMBL1806445, “Limonoids from seeds of Thai Xylocarpus moluccensis” (Bioorg Med Chem Lett, 2011).
Active and inactive are the calls of the source. The calls are words filed in the database; no cut-off is given here.

Key:
RAW264.7 [1] = assay: Inhibition of LPS-induced nitric oxide production in mouse RAW264.7 cells assessed as nitrite level after 24 hrs by Griess method; format: functional, cell-based; details: for IC50: RAW264.7, 24 h
Neutrophil = assay: Inhibition of superoxide anion generation in fMLP-stimulated human neutrophils; format: functional, cell-based
RAW264.7 [2] = assay: Cytotoxicity against mouse RAW264.7 cells after 24 hrs by MTT assay; format: cell-based; details: RAW264.7, 24 h
RAW264.7 [3] = assay: Inhibition of LPS-induced nitric oxide production in mouse RAW264.7 cells assessed as nitrite level upto 50 uM after 24 hrs by Griess method; format: functional, cell-based

| SMILES | inhibition (RAW264.7 [1]) | IC50 (RAW264.7 [1]) [µM] | IC50 (Neutrophil) [µM] | IC50 (RAW264.7 [2]) [µM] | inhibition (RAW264.7 [3]) |
| --- | --- | --- | --- | --- | --- |
| COC(=O)C[C@H]1C(C)(C)[C@H](OC(C)=O)[C@]2(O)CC3=C4CC(=O)O[C@@H](c5ccoc5)[C@]4(C)CC[C@@H]3[C@@]1(C)C2=O [2-HYDROXYFISSINOLIDE] | Dose-dependent effect | 52.1 | > 27 | – | – |
| CC1(C)C(=O)C=C[C@]2(C)[C@H]3CC[C@@]4(C)[C@H](c5ccoc5)OC(=O)[C@H]5O[C@]54[C@]3(C)C(=O)C[C@@H]12 [DEACETOXY-7-OXOGEDUNIN] | Dose-dependent effect | 22.8 | – | 16.7 | – |
| CC1(C)C(=O)C=C[C@]2(C)[C@H]3CC[C@@]4(C)[C@H](c5ccoc5)OC(=O)[C@H]5O[C@]54[C@]3(C)[C@H](O)C[C@@H]12 [DEACETYLGEDUNIN] | Dose-dependent effect | < 10 | – | 37.6 | – |
| COC(=O)C[C@H]1C(C)(C)C(=O)[C@@H]2CC3=C4CC(=O)O[C@@H](c5ccoc5)[C@]4(C)CC[C@@H]3[C@@]1(C)C2=O [MEXICANOLIDE] | – | – | > 27 | – | inactive |
| COC(=O)C[C@H]1[C@]2(C)C[C@]3(O)[C@@](O)(C(=O)C4=C(CC[C@]5(C)C4=CC(=O)O[C@H]5c4ccoc4)[C@]13C)[C@H]2OC(C)=O [MOLUCCENSIN H] | – | – | > 27 | – | inactive |
| COC(=O)C[C@H]1[C@]2(C)C[C@@]3(O)[C@]1(C)[C@H]1CC[C@]4(C)C(=C1C(=O)[C@@]3(OC)[C@H]2OC(C)=O)CC(=O)O[C@H]4c1ccoc1 [MOLUCCENSIN I] | – | – | > 27 | – | inactive |
| COC(=O)C[C@H]1C(C)(C)[C@H](O)[C@@H]2CC3=C4CC(=O)O[C@@H](c5ccoc5)[C@]4(C)CC[C@@H]3[C@@]1(C)C2=O [PROCERANOLIDE] | Dose-dependent effect | 50.7 | > 27 | – | – |
| COC(=O)C[C@@H]1C(C)(C)C(=O)C=C[C@@]1(C)[C@H]1CC[C@@]2(C)[C@H](c3ccoc3)OC(=O)C[C@]2(O)[C@]1(C)O [THAIMOLUCCENSIN A] | Dose-dependent effect | 45.8 | – | – | – |
| COC(=O)C[C@H]1[C@]2(C)CO[C@@]3(O)[C@]1(C)[C@H]1CC[C@]4(C)[C@@H](CC(=O)O[C@H]4c4ccoc4)C1=C[C@@]3(O)[C@H]2OC(C)=O [THAIMOLUCCENSIN B] | – | – | > 27 | – | – |
| COC(=O)C[C@H]1[C@]2(C)C[C@@]3(OC(=O)C(C)C)[C@]1(C)[C@H]1CC[C@]4(C)C(=C1C(=O)[C@@]3(O)[C@H]2OC(C)=O)CC(=O)O[C@H]4c1ccoc1 [THAIMOLUCCENSIN C] | Dose-dependent effect | 32.3 | > 27 | – | – |
